These results are taken from US20180078561A1 (LAM Therapeutics, Inc., priority 2015, published 2018).

The Kd is a measure of binding affinity in units of concentration. Usually IC20 stands for the point of the concentration-response curve where the effect stands at 20%. In general, fraction unbound refers to free concentration divided by total concentration. Read a high fraction unbound as much free substance.

Entries after “also recorded” stand apart in the source; their conditions may differ. Like-named read-outs stand apart in the source and are kept apart here.

The nature of data set [1]: human plasma profile of apilimod and metabolites. Format: in vivo. The settings on record: oral 105 mg doses of apilimod free base, given 10 hr apart.
The test system of the next data set is cancer cell line. The data set is described as follows: vacuolization of cells. Format: cell-based. To be noted: for vacuolation in cells: at concentrations comparable to apilimod. An excerpt: PIKfyve is associated with the cytosolic leaflet of early endosomes and its activity is required for endomembrane homeostasis, endolysosomal function and proper retrograde transport from the endosome to the trans-Golgi network. Introduction of a kinase dead mutant into cells induces a swollen vacuole phenotype that can be rescued by the injection of PI(3,5)P2. Inhibition of PIKfyve by pharmacological methods as well as RNAi also produces swollen vacuoles and disruption of endomembrane dynamics.
Introduction of a kinase dead mutant into cells induces a swollen vacuole phenotype that can be rescued by the injection of PI(3,5)P2. Inhibition of PIKfyve by pharmacological methods as well as RNAi also produces swollen vacuoles and disruption of endomembrane dynamics.

In a further data set the test system is WSU-DLCL2 cells. The data set is described as follows: anti-proliferative activity normalized to apilimod (plasma concentration factors). Format: cell-based, Human. To be noted: data from WSU-DLCL2 cells.
A further data set concerns the target T1, PIKfyve (Homo sapiens, UniProt Q9Y2I7).
T1 construct: purchased DiscoveRx, Fremont, Calif
The data set can be described thus: dissociation constant (Kd) study. Format: binding. The settings on record: 0.05-3000 nM, duplicate. The procedure:
A dissociation constant (Kd) study was performed using the 3 compounds at increasing concentrations (0.05-3000 nM) against PIKfyve.

In the next data set the test system is ELT3-EV. The data set is described as follows: 10-point dose response, cell viability (CellTiter-Glo). In kind it is cell-based. To be noted: Rattus norvegicus; cell type ELT3 (ELT3-EV); 72 h; average of two experiments; read-out: IC50 TSC2 −/−. For orientation: Cellular ATP, detected with luciferase, serves as a proxy for viable cell number.
A further data set deals with THP-1. To be noted: WO 2006/128129; cited from earlier work.
Another data set has as its system SUDHL-4 cells. The data set is described as follows: drug library screen with and without apilimod, cell viability. Format: cell-based. The settings on record: Homo sapiens, SU-DHL-4. An excerpt:
A manually curated library of 93 drugs including both FDA approved and unapproved drugs was used in the screen.
Ibrutinib is an FDA-approved drug targeting B-cell malignancies and indicated for monotherapy in treating mantle cell lymphoma and chronic lymphocytic leukemia. It is also known as PCI-32765 and marketed under the trade name Imbruvica™. […] BTK is a key mediator of at least three critical B-cell pro-survival mechanisms occurring in parallel-regulation of apoptosis, cell adhesion and cell migration and homing.

Another data set concerns Yulac614 melanoma cells. The data set can be described thus: drug combination screen and validation, cell viability.
For the next data set, the system named is Normal lung fibroblasts. The data set is described as follows: cytotoxicity on normal cells. To be noted: concentrations as high as 10 micromolar. In kind it is cell-based. An excerpt: (§1) 35 cell lines were identified as sensitive to apilimod-induced cytotoxicity.
The test system of data set [2] is peripheral blood mononuclear cells. To be noted: Wada et al., Blood 109, 2007; cited from earlier work.
For data set [3] the following is noted: for Apilimod Ave. Plasma Conc.: Day 7; for sustained blood concentration of apilimod: measured at 24 h.
In data set [4] the test system is TRI-AML102 (TSC2 null AML). The data set can be described thus: 10-point dose response, cell viability (CellTiter-Glo). To be noted: Homo sapiens; cell type AML (head: AML TSC2 +/− p53 −/−); 72 h; average of two experiments. In kind it is cell-based.
Text: (§2) (2) ELT3-EV and ELT3-TSC2 lines were established from the ELT3 rat tumor cell line. […] To develop an isogenic pair of cells ELT3 cells were infected with a retrovirus vector encoding the hygromycin antibiotic resistance gene (ELT3-EV) or the same retrovirus vector also encoding TSC2 (ELT3-TSC2). The ELT3-EV and ELT3-TSC2 line were then established by hygromycin selection. […] The cells were infected with amphotropic retrovirus LXSN16E6E7 that encodes the HPV16 E6 and E7 open reading frames and neomycin resistance cassette. Cells were expanded and neomycin-selected. Individual clones were isolated and frozen down. The coding sequence for the human Telomerase gene (hTERT) with hygromycin resistance cassette (pLXSN hTERT-hyg plasmid) was stably expressed into a TSC2^−/− confirmed E6E7 AML clone using Fugene6 transfection reagent (Roche Applied Science, Indianapolis, Ind.). TRI-AML102 was generated by stable incorporation of a control zeomycin selection plasmid (pcDNA3.1-zeo), while TRI-AML103 expresses the human TSC2 cDNA pcDNA3.1-zeo plasmid.
Another data set relates to Jurkat. The settings on record: WO 2006/128129; cited from earlier work.
For another data set, the system named is HELA. To be noted: WO 2006/128129; cited from earlier work.
The subject of a further data set is H4. The data set can be described thus: cell viability (CellTiterGlo), apilimod sensitivity. In kind it is cell-based. The settings on record: Homo sapiens, Human neuroglioma.
Text: as §1

Another data set concerns H4 neuroglioma cell line. The data set can be described thus: Cyto-ID Autophagy detection. In kind it is cell-based, Human. To be noted: 72 hours of treatment. An excerpt:
Autophagy was quantified using the Cyto-ID Autophagy detection kit (Enzo) according to manufacturer's directions.

The next data set deals with U937. The settings on record: WO 2006/128129; cited from earlier work.
Another data set relates to MEF-EV (TSC2−/− MEF). The data set can be described thus: 10-point dose response, cell viability (CellTiter-Glo). In kind it is cell-based. The settings on record: Mus musculus; cell type MEF TSC2 −/− (MEF-EV); 72 h; average of two experiments. An excerpt: TSC2 null cells have constitutively active mTOR. Briefly, MEF cells derived from TSC2−/− knockout mouse embryos (Onda et al., J. Clin. Invest. 104(6):687-95, 1999) were infected with a retrovirus vector encoding the hygromycin antibiotic resistance gene (MEF-EV) or the same retrovirus vector also encoding TSC2 (MEF-TSC2). The MEF-EV and MEF-TSC2 line were then established by hygromycin selection.
See e.g., Zhang et al. J. Clin. Invest. 112, 1223-33, 2003. (2) ELT3-EV and ELT3-TSC2 lines were established from the ELT3 rat tumor cell line. The ELT3 line is an established rat tumor model for LAM/TSC. See e.g., Howe et al., Am. J. Path. 146, 1568-79, 1995. These cells harbor an inactivating mutation in TSC2, which leads to constitutive activation of the mTOR pathway. To develop an isogenic pair of cells ELT3 cells were infected with a retrovirus vector encoding the hygromycin antibiotic resistance gene (ELT3-EV) or the same retrovirus vector also encoding TSC2 (ELT3-TSC2). The ELT3-EV and ELT3-TSC2 line were then established by hygromycin selection. […] The cells were infected with amphotropic retrovirus LXSN16E6E7 that encodes the HPV16 E6 and E7 open reading frames and neomycin resistance cassette. […]
IC50 values were then calculated from the dose response curves using XLFIT (IDBS).

For data set [5], the system named is diffuse large B cell lymphoma cells. The data set can be described thus: Apotox-Glo Triplex assay. In kind it is cell-based. The settings on record: 48 hours after addition. The procedure:
Apoptosis was quantified and distinguished from necrosis using the Apotox-Glo Triplex assay (Promega, Inc.) according to the manufacturer's instructions. In this assay, viability, apoptosis, and necrosis are assessed simultaneously using three different markers (GF-AFC, Caspase-3/7, and bis-AAF-R110, respectively).

Another data set deals with (TSC2−/−, p53−/−) MEF. The data set can be described thus: 10-point dose response, cell viability (CellTiter-Glo). In kind it is cell-based. The settings on record: Mus musculus; cell type MEF TSC2 −/− p53 −/−; 72 h; average of two experiments.
The subject of data set [6] is 122 human cancer cell lines. The data set is described as follows: cancer cell line screen for sensitivity to apilimod. Format: cell-based. The settings on record: sensitive if IC50 less than 500 nM.
Text: as §1
The most sensitive of those tested were non-Hodgkin's Lymphoma (NHL) cell lines. […] NHL represents a diverse group of hematopoietic malignancies that vary in severity, with subtypes ranging from slow growing to aggressive. Subtypes of NHL include diffuse large B cell lymphoma (DLBCL), Burkitt's lymphoma, mantle lymphoma, and follicular B cell lymphoma. DLBCL is divided into two subtypes, GCB and ABC, based on gene expression and cell of origin. The GCB are germinal center B cell type, arising from normal germinal center B cells, and the ABC are activated B cell type, arising from post-germinal center B cells in the process of differentiating into plasma cells.

A short description of data set [7]: plasma protein binding. Format: in vitro ADME. The settings on record: rat plasma proteins.
Data set [8] is described as follows: plasma protein binding. In kind it is in vitro ADME. The settings on record: human plasma proteins.
Data set [9] is described as follows: plasma protein binding. To be noted: dog plasma proteins. In kind it is in vitro ADME.

T1 sequence (Q9Y2I7 whole entry): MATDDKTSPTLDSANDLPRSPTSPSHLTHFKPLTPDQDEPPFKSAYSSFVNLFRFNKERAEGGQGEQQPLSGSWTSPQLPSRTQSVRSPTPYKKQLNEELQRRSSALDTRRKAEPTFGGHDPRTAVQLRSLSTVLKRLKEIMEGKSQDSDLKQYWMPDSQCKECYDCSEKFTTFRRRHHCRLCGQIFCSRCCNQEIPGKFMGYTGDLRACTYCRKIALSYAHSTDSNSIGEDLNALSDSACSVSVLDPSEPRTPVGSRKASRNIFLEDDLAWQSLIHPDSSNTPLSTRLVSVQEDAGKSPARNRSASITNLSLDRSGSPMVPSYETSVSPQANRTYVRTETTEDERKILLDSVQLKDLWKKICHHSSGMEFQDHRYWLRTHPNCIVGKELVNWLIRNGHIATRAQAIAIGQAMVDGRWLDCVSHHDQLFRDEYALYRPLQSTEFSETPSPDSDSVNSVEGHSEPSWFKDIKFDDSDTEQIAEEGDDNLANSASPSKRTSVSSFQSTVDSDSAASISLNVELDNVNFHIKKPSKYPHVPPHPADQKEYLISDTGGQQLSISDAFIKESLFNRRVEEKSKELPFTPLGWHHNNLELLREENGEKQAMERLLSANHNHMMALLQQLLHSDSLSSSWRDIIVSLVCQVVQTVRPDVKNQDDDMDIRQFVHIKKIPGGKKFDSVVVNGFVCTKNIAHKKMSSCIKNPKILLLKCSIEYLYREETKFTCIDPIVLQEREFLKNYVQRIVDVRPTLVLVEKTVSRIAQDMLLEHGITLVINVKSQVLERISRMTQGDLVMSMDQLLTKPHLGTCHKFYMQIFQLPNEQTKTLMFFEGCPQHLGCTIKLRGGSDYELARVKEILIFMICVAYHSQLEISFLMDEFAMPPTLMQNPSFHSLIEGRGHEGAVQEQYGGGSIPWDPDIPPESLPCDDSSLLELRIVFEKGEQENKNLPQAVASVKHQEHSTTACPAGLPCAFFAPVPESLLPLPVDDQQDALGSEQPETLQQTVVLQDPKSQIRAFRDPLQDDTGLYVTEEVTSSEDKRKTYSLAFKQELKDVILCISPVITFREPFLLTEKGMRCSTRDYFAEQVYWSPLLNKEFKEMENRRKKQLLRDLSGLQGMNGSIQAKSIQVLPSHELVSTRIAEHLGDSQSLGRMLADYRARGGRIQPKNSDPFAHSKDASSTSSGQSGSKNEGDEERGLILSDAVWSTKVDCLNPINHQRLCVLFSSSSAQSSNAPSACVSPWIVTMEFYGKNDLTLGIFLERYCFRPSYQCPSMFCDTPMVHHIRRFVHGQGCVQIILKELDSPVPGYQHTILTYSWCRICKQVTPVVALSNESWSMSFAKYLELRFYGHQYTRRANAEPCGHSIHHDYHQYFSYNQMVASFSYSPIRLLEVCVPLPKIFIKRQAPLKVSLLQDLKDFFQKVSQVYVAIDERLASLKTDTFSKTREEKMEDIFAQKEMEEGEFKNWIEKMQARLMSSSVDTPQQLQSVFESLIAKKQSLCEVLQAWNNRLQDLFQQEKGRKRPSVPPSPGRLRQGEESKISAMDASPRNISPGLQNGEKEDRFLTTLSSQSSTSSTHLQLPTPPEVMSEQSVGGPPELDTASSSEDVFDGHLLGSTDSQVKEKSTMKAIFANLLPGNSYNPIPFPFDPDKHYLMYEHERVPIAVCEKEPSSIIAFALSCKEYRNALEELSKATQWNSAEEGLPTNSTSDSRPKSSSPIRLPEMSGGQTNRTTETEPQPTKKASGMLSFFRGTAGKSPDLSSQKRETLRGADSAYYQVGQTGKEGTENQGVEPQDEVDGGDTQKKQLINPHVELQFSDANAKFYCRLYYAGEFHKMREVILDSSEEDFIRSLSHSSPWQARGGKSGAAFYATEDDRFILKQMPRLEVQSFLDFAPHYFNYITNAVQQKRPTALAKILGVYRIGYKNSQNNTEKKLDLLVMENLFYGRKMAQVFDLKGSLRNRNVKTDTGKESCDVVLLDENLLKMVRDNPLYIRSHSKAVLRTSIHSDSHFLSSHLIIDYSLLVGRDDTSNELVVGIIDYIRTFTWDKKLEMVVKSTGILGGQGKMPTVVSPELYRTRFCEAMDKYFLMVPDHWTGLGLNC
Text for (TSC2−/−, p53−/−) MEF: as §2
Text for ELT3-EV: as §2
Protocol for Yulac614 melanoma cells: Yulac614 (resistant to vemurafenib, see Choi et al. 2014) cells were used to conduct drug combination studies to identify synergistic drug pairs. A library of 500 unapproved drugs was used to perform drug screening in the presence or absence of vemurafenib (at IC20=6 μM).
30 nL of library drug (at 1000× concentration) was spotted into appropriate wells of a 384 black walled plate (Corning #3712). Duplicate drug-spotted plates were prepared and to them were added Yulac614 cells which were pre-treated with either DMSO (0.01% final) or vemurafenib (6 μM final). The Yulac614 cells were grown in OptiMEM (Life Technologies) containing 5% FBS (Sigma Aldrich F2442-500 mL, Lot 12D370) Penicillin/Streptomycin (100×) (CellGro Ref 30-002). […]
Plates were incubated for 72 h at 37° C. under an atmosphere of 5% CO2 in a humidified incubator. Cell viability was determined with CellTiter-Glo® luminescence assay (Promega) as per the manufacturer's instructions. Viability was expressed as a percentage of control (DMSO) cells. […]
50 uL of the 10 point drug dilution series (at 2× concentration) was added to the cells. […] 72 hours after compound addition relative cell viability was determined by CellTiter-Glo® luminescence assay (Promega) as per the manufacturer's instructions, and values were expressed as a percentage relative to vehicle (DMSO) treated control cells (set to 100%).

For the molecule `Cc1cccc(/C=N/Nc2cc(N3CCOCC3)nc(OCCc3cccc[n+]3[O-])n2)c1` [STA-5944], the “mean Cmax relative to apilimod” value in data set [1] was “somewhat less than half”. The vacuolation in cells result in the data set on cancer cell line was “cause vacuolation in cells at comparable concentrations”. Further, the “plasma concentration factor (for Apilimod Equivalent Concentrations)” value (“plasma concentration factor” below) in the data set on WSU-DLCL2 cells worked out at 0.52. At PIKfyve, this molecule had a Kd of 0.061 nM.

`Cc1cccc(/C=N/Nc2cc(N3CCOCC3)nc(OCCc3ccccn3)n2)c1` [apilimod]: the IC50 was 13.7 nM in the data set with ELT3-EV; 117 nM in data set [4]; 250 to 300 nM in the data set on H4; 19.7 nM with MEF-EV (TSC2−/− MEF); 28.8 nM with (TSC2−/−, p53−/−) MEF. In addition, the cytotoxicity entry (in the data set on THP-1; in data set [2]; in the data set on Jurkat; in the data set with HELA; with U937) was “not cytotoxic” throughout. Besides, the IC20 came to 10 nM in the data set on SUDHL-4 cells and 500 nM in the data set with Yulac614 melanoma cells. Also, in the data set with Normal lung fibroblasts, the apilimod-induced cytotoxicity entry is recorded as “not cytotoxic; also recorded: insensitive”. Besides, the “Apilimod Ave. Plasma Conc.” value in data set [3] (Group 3: S.C. pump ~15 mg/kg/d (DRW) + I.P. 30 mg/kg (MC)) amounted to 0.682 µM; in [3] (Group 7: S.C. pump ~15 mg/kg/d (DRW) + I.P. 30 mg/kg (DRD)), 0.613 µM; in data set [3] (Group 8: S.C. pump ~30 mg/kg/d (DRW) + I.P. 30 mg/kg (DRD)), 1.76 µM; in data set [3] (Group 9: S.C. pump ~15 mg/kg/d (DRW) only), 0.755 µM; in [3] (Group 10: S.C. pump ~30 mg/kg/d (DRW) only) it was 1.87 µM. In addition, the results for the “sustained blood concentration of apilimod” value in data set [3] (S.C. osmotic mini-pump 15 mg/kg/day (bis-mesylate salt)) and in [3] (S.C. osmotic mini-pump 30 mg/kg/day (bis-mesylate salt)) were over 0.5 µM and over 1 µM, respectively. Besides, the “autophagy (autophagic vacuoles)” value with H4 neuroglioma cell line is “induced autophagy in a dose-dependent manner”. Besides, in the data set with cancer cell line (as low as), the “apilimod concentration at which vacuole formation in cells was observed” value is listed as 20 nM. The vacuolization result with cancer cell line (live cells, 500 nM, 24 h) was “induces vacuolization”. Besides, the “apoptosis (Caspase-3/7 marker)” value in [5] is reported as “increased apoptosis”. Also, the “NHL cell lines tested that were sensitive to apilimod” value in data set [6] (non-Hodgkin's Lymphoma cell lines) is recorded as “over 50%”. The “cell lines identified as sensitive to apilimod-induced cytotoxicity” value in data set [6] (of 122 human cancer cell lines) is 35 cell lines.

For `Cc1cccc(/C=N/Nc2cc(N3CCOCC3)nc(OCC(O)c3ccccn3)n2)c1` (stereo not shown) [STA-5908], the “mean Cmax relative to apilimod” value in data set [1] is “somewhat less than half”. The vacuolation in cells entry with cancer cell line was “cause vacuolation in cells at comparable concentrations”. Also, in the data set with WSU-DLCL2 cells, the “plasma concentration factor” value is listed as 0.68. This molecule showed a Kd at PIKfyve of 0.09 nM.

Turning to `Cc1cccc(/C=N/Nc2cc(N3CCOCC3)nc(OCCc3ccccn3)n2)c1` [apilimod free base], the fraction unbound in the data set “plasma protein binding [7]”, in the data set “plasma protein binding [8]” and in “plasma protein binding [9]” was under 0.01 each time.

Turning to `Cc1cccc(/C=N/Nc2cc(N3CCOCC3)nc(OCC(O)c3cccc[n+]3[O-])n2)c1` (stereo not shown) [STA-6048], the vacuolation in cells result in the data set on cancer cell line is reported as “cause vacuolation in cells at comparable concentrations”. In addition, in the data set on WSU-DLCL2 cells, the “plasma concentration factor” value stood at 0.26. For the same molecule, binding on PIKfyve was put at a Kd of 0.088 nM.
